Where two headings read alike, the source gives them in different places.
What was measured:
[1] = test system: HCV genotype 1a (H77 strain) replicon in HUH-7 cells; experiment: HCV replicon luciferase reporter assay, genotype 1a; type: cell-based; conditions: Hepatitis C virus, Huh-7, 72 h, 3 days incubation
From the text: (§1) Generation of HCV Replicon
(§2) An HCV replicon whole cell system was established as described by Lohmann V, Korner F, Koch J, Herian U, Theilmann L, Bartenschlager R., Science 285(5424):110-3 (1999) and modified to introduce a luciferase reporter, as first described by Krieger et al (Krieger N, Lohmann V, and Bartenschlager R, J. Virol. 75(10):4614-4624 (2001)). CDNA encoding a humanized form of the Renilla luciferase gene and a linker sequence fused directly to the 3′-end of the luciferase gene were introduced into the replicon construct using an Asc1 restriction site located in core, directly upstream of the neomycin marker gene. The adaptive mutation at position 1179 (serine to isoleucine) was also introduced (Blight K J, Kolykhalov, A A, Rice, C M, Science 290(5498):1972-1974). A stable cell line constitutively expressing this HCV replicon construct was generated by first linearizing plasmid DNAs with ScaI. RNA transcripts were synthesized in vitro using the T7 MegaScript transcription kit (Ambion, Austin, Tex.) according to manufacturer's directions. In vitro transcripts of the cDNA were transfected into the human hepatoma cell line, HUH-7. […] Resulting cell lines were characterized for positive and negative strand RNA production and protein production over time.
A stable HCV replicon luciferase reporter cell line representing the genotype 1a H77 strain (Yanagi M, Purcell R H, Emerson S U, et al. Transcripts from a single full-length cDNA clone of hepatitis C virus are infectious when directly transfected into the liver of a chimpanzee. Proc Natl Acad Sci USA 1997; 94(16):8738-8743) was generated as described previously for the genotype 1b(Con1) replicon luciferase cell line. The replicon construct was modified by introducing mutations were introduced into the genes encoding the NS3 helicase domain (proline replaced by leucine at position 1496) and NSSA (serine to isoleucine at position 2204) to improve replication in cell culture.
(§3) HCV Replicon Luciferase Reporter Assay
(§4) HCV replicon luciferase assays were developed to monitor the inhibitory effects of compounds described in the disclosure on HCV genotypes 1a and 1b viral replication. HUH-7 cells, constitutively expressing the HCV replicon, were grown in Dulbecco's Modified Eagle Media (DMEM) (Gibco-BRL) containing 10% Fetal calf serum (FCS) (Sigma) and 1 mg/mL G418 (Gibco-BRL). Compounds were serially diluted 3 folds in DMSO for a twenty-point titration and subsequently transferred to sterile 384-well tissue-culture treated plates (Corning cat #3571). The plates were then seeded with 50 μL of cells at a density of 3.0×10^3 cells/well in DMEM containing 4% FCS (final DMSO concentration at 0.5%). After 3 days incubation at 37° C., cells were analyzed for Renilla Luciferase activity using the EnduRen as substrate (Promega cat #E6485). The EnduRen substrate was diluted in DMEM and then added to the plates to a final concentration of 7.5 μM. The plates were incubated for 2 hrs at 37° C. and then read immediately for 30 seconds with Viewlux Imager (PerkinElmer) using a luminescence program. To assess cytotoxicity of compounds, CC50 values were generated by multiplexing the EnduRen-containing plates with Cell Titer-Blue (Promega, cat # G8082). Cell-Titer Blue (3 μL) was added to each well and incubated for 8 hrs at 37° C. The fluorescence signal from each well was read, with an excitation wavelength at 525/10 nm and an emission wavelength of 598/10 nm, using the Viewlux Imager.
(§5) The EC50 values for compounds were calculated by using a four-parameter logistic equation: y=A+((B−A)/(1+((C/x)^D))), where A and B denotes minimal and maximal % inhibition, respectively, C is the EC50, D is the hill slope and x represents compound concentration.

[2] = test system: HCV genotype 1b (Con1) replicon in HUH-7 cells; experiment: HCV replicon luciferase reporter assay, genotype 1b; type: cell-based; conditions: Hepatitis C virus, Huh-7, 72 h, 3 days incubation
From the text: as §1
as §2, with “time. […]” for “time.”
as §3, §4, §5

[3] = HCV genotype 1a replicon luciferase, read-out: LE_1a (EC50, range)
[4] = HCV genotype 1b replicon luciferase, read-out: LE_1b (EC50, range)
[5] = HCV genotype 1a replicon luciferase assay, range class, read-out: LE_1a (EC50, range)
[6] = HCV genotype 1b replicon luciferase assay, range class, read-out: LE_1b (EC50, range)

**Q.** For `COc1ccc2c(O[C@@H]3C[C@H]4C(=O)N[C@]5(C(=O)NS(=O)(=O)C6(C)CC6)C[C@H]5/C=C\CC[C@@H](C)C[C@@H](C)[C@H](NC(=O)OC(C)(C)C)C(=O)N4C3)nc(-c3ccc4c(c3)OCCO4)cc2c1` [Compound 5233, tert-butyl ((2R,6S,7R,9R,13aS,14aR,16aS,Z)-2-((3-(2,3-dihydrobenzo[b][1,4]dioxin-6-yl)-6-methoxyisoquinolin-1-yl)oxy)-7,9-dimethyl-14a-(((1-methylcyclopropyl)sulfonyl)carbamoyl)-5,16-dioxo-1,2,3,5,6,7,8,9,10,11,13a,14,14a,15,16,16a-hexadecahydrocyclopropa[e]pyrrolo[1,2-a][1,4]diazacyclopentadecin-6-yl)carbamate], which EC50 [1, 3] is on record?
**A.** < 5.46 nM

**Q.** And the EC50 [2, 4]?
**A.** < 5.46 nM

**Q.** How did the EC50 [1, 5] turn out when `CC[C@@H]1C[C@H](C)CC/C=C\[C@@H]2C[C@@]2(C(=O)NS(=O)(=O)C2(C)CC2)NC(=O)[C@@H]2C[C@@H](Oc3nc(OC)cc4cc(OC)ccc34)CN2C(=O)[C@H]1NC(=O)OC(C)(C)C(C)(F)F` [Compound 1124, 3,3-difluoro-2-methylbutan-2-yl((2R,6S,7R,9R,13aS,14aR,16aS,Z)-2-((3,6-dimethoxyisoquinolin-1-yl)oxy)-7-ethyl-9-methyl-14a-(((1-methylcyclopropyl)sulfonyl)carbamoyl)-5,16-dioxo-1,2,3,5,6,7,8,9,10,11,13a,14,14a,15,16,16a-hexadecahydrocyclopropa[e]pyrrolo[1,2-a][1,4]diazacyclopentadecin-6-yl)carbamate] was run?
**A.** < 5.46 nM

**Q.** What about the EC50 [2, 6] of the same compound?
**A.** < 5.46 nM

**Q.** For `COc1cc2ccnc(O[C@@H]3C[C@H]4C(=O)N[C@]5(C(=O)NS(=O)(=O)C6(F)CC6)C[C@H]5/C=C\CC[C@H](C)C[C@@H](C)[C@H](NC(=O)OC(C)(C)C(F)(F)F)C(=O)N4C3)c2cc1Cl` [Compound 4044], which EC50 ([1]; GETYPE1A, HCV genotype 1a replicon luciferase, read-out: LE_1a (EC50, range)) is on record?
**A.** 4.82 to 103 nM

**Q.** And the EC50 ([2]; GETYPE1B, HCV genotype 1b replicon luciferase, read-out: LE_1b (EC50, range))?
**A.** < 5.46 nM

**Q.** How did the EC50 [1, 3] turn out when `CCCOc1cnc(O[C@@H]2C[C@H]3C(=O)N[C@]4(C(=O)NS(=O)(=O)C5CC5)C[C@H]4/C=C\CC[C@H](C)C[C@@H](C)[C@H](NC(=O)OCC4(C)CC4)C(=O)N3C2)c2ccccc12` [Compound 5096, (1-methylcyclopropyl)methyl ((2R,6S,7R,9S,13aS,14aR,16aS,Z)-14a-((cyclopropylsulfonyl)carbamoyl)-7,9-dimethyl-5,16-dioxo-2-((4-propoxyisoquinolin-1-yl)oxy)-1,2,3,5,6,7,8,9,10,11,13a,14,14a,15,16,16a-hexadecahydrocyclopropa[e]pyrrolo[1,2-a][1,4]diazacyclopentadecin-6-yl)carbamate] was run?
**A.** > 87.4 nM

**Q.** What about the EC50 [2, 4] of the same compound?
**A.** 4.82 to 103 nM

**Q.** Which EC50 [1, 5] does the source give for `COc1cnc(O[C@@H]2C[C@H]3C(=O)N[C@]4(C(=O)NS(=O)(=O)C5(CF)CC5)C[C@H]4/C=C\CC[C@@H](C)C[C@@H](C)[C@H](NC(=O)OC4(C(F)(F)F)COC4)C(=O)N3C2)c2ccccc12` [Compound 1046, 3-(trifluoromethyl)oxetan-3-yl ((2R,6S,7R,9R,13aS,14aR,16aS,Z)-14a-(((1-(fluoromethyl)cyclopropyl)sulfonyl)carbamoyl)-2-((4-methoxyisoquinolin-1-yl)oxy)-7,9-dimethyl-5,16-dioxo-1,2,3,5,6,7,8,9,10,11,13a,14,14a,15,16,16a-hexadecahydrocyclopropa[e]pyrrolo[1,2-a][1,4]diazacyclopentadecin-6-yl)carbamate] here?
**A.** < 5.46 nM

**Q.** What about the EC50 [2, 6] of the same compound?
**A.** < 5.46 nM

**Q.** What does the source list for `CCOc1nnc(O[C@@H]2C[C@H]3C(=O)N[C@]4(C(=O)NS(=O)(=O)C5CC5)C[C@H]4/C=C\CC[C@@H](C)C[C@@H](C)[C@H](NC(=O)NC(C)(C)C)C(=O)N3C2)c2ccccc12` [Compound 5041, (2R,6S,7R,9R,13aS,14aR,16aS,Z)-6-(3-(tert-butyl)ureido)-N-(cyclopropylsulfonyl)-2-((4-ethoxyphthalazin-1-yl)oxy)-7,9-dimethyl-5,16-dioxo-1,2,3,5,6,7,8,9,10,11,13a,14,14a,15,16,16a-hexadecahydrocyclopropa[e]pyrrolo[1,2-a][1,4]diazacyclopentadecine-14a-carboxamide]?
**A.** EC50 [1, 3]: < 5.46 nM; EC50 [2, 4]: 4.82 to 103 nM

**Q.** `COCCn1nc(O[C@@H]2C[C@H]3C(=O)N[C@]4(C(=O)NS(=O)(=O)C5(C)CC5)C[C@H]4/C=C\CC[C@H](C)C[C@@H](C)[C@H](NC(=O)OC(C)(C)C(C)(F)F)C(=O)N3C2)c2ccccc2c1=O` [Compound 1019, 3,3-difluoro-2-methylbutan-2-yl((2R,6S,7R,9S,13aS,14aR,16aS,Z)-2-((3-(2-methoxyethyl)-4-oxo-3,4-dihydrophthalazin-1-yl)oxy)-7,9-dimethyl-14a-(((1-methylcyclopropyl)sulfonyl)carbamoyl)-5,16-dioxo-1,2,3,5,6,7,8,9,10,11,13a,14,14a,15,16,16a-hexadecahydrocyclopropa[e]pyrrolo[1,2-a][1,4]diazacyclopentadecin-6-yl)carbamate] was tested. Which EC50 [1, 5] did it give?
**A.** > 87.4 nM

**Q.** What about the EC50 ([1]; HCV genotype 1a replicon luciferase assay, read-out: LE_1a (EC50)) of the same compound?
**A.** ≥ 1000 nM

**Q.** And the EC50 [2, 6]?
**A.** > 87.4 nM

**Q.** What about the EC50 ([2]; HCV genotype 1b replicon luciferase assay, read-out: LE_1b (EC50)) of the same compound?
**A.** 506 nM

**Q.** What does the source list for `COc1ccc2c(O[C@@H]3C[C@H]4C(=O)N[C@]5(C(=O)NS(=O)(=O)C6CC6)C[C@H]5/C=C\CC[C@@H](C)C[C@@H](C)[C@H](NC(=O)NC(C)(C)C)C(=O)N4C3)nc(-c3ccc(OC(C)C)cn3)cc2c1` [Compound 5211, (2R,6S,7R,9R,13aS,14aR,16aS,Z)-6-(3-(tert-butyl)ureido)-N-(cyclopropylsulfonyl)-2-((3-(5-isopropoxypyridin-2-yl)-6-methoxyisoquinolin-1-yl)oxy)-7,9-dimethyl-5,16-dioxo-1,2,3,5,6,7,8,9,10,11,13a,14,14a,15,16,16a-hexadecahydrocyclopropa[e]pyrrolo[1,2-a][1,4]diazacyclopentadecine-14a-carboxamide]?
**A.** EC50 [1, 3]: < 5.46 nM; EC50 [2, 4]: < 5.46 nM
